Measured values: patent US20230330025A1, “Particle Modifiers for Multi-Drug Loaded Nanoparticles” (UNIVERSITY OF CONNECTICUT, priority 2022, published 2023)
Structures can show the parent of a compound that is named as a salt.

Assay: In vitro release study (dialysis method)
Assay type: physicochemical
Settings: PBS pH 5.5, 6.5, 7.4; 37 °C; 100 kD dialysis
Description: The release study was conducted using a dialysis method with PBS as the buffer media at pH 5.5, 6.5, and 7.4 to simulate the endosomal, tumoral, and plasma conditions, respectively. The pH was adjusted using 1 M HCl solution or 1 M NaOH solution as needed to achieve the desired media pH. Briefly, 5 mL of each formulation were placed in Spectrum Float-A-Lyzer G2 dialysis tubes (Thermo Fisher Scientific, Waltham, MA) with a molecular weight cut-off of 100 kD, which were then immersed in 50 mL of release media. The containers were incubated at 37° C. under shaking at 150 rpm for 96 hours. At 0-, 1-, 2-, 4-, 8-, 12-, 24-, 36-, 48-, 72-, and 96-hour intervals, 500 μL of the sample solution was withdrawn from the release media and replaced with an equal amount of fresh medium. The samples were analyzed using the UPLC-UV method previously described. The error bars were obtained by measuring each sample in triplicate.

COc1cccc2c1C(=O)c1c(O)c3c(c(O)c1C2=O)C[C@@](O)(C(=O)CO)C[C@@H]3O[C@H]1C[C@H](N)[C@H](O)[C@H](C)O1 [DOX solution, Doxorubicin (hydrochloride salt)]
DOX passed through membrane by 24 hours: ~100%
DOX released (passed dialysis membrane) within first 4 hours: About 80%
